Reference: ChEMBL document CHEMBL2057187, “AM-8553: a novel MDM2 inhibitor with a promising outlook for potential clinical development” (J Med Chem, 2012)

Columns and labels:
[1] = system: SJSA-1; assay: Antitumor activity against human SJSA1 cells xenografted in mouse assessed as tumor regression at 200 mg/kg, qd; format: functional
[2] = Oral bioavailability in mouse; format: ADME, organism-based; conditions: in vivo
[3] = Oral bioavailability in rat; format: ADME, organism-based; conditions: in vivo

CC[C@@H]([C@H](C)O)N1C(=O)[C@@](C)(CC(=O)O)C[C@H](c2cccc(Cl)c2)[C@H]1c1ccc(Cl)cc1
Activity [1]: 27% | bioavailability [2]: 12% | bioavailability [3]: 100%
